Columns and labels:
[1] = test system: metalloprotease activity (MMP-1-2-3-12-13); test: Inhibition of metalloprotease activity in IL-1β-stimulated human arthrosic chondrocytes (FRET substrate); format: cell-based; conditions: 24 hours preincubation, then 100 U/ml IL-1β for 24 hours; significance p<0.05
Description: Solutions were prepared with the two compositions of the invention. One of them contained 160 μg/ml of hyaluronic acid and 40 μg/ml of dermatan sulphate, and was compared to hyaluronic acid at a concentration of 160 μg/ml and to dermatan sulphate at a concentration of 40 μg/ml. The other composition contained 800 μg/ml of hyaluronic acid and 200 μg/ml of dermatan sulphate and was compared to hyaluronic acid at a concentration of 800 μg/ml and to dermatan sulphate at a concentration of 200 μg/ml. The chondrocytes were isolated from cartilage pieces (from knee or hip) from […] advanced osteoarthritis, by sequential enzymatic digestion: 1 hour with hyaluronidase (0.1 mg/ml), followed by 10 hours with collagenase (type IA, 2 mg/ml) at 37° C. in DMEM/Ham's F12 medium plus penicillin (100 U/ml) and streptomycin (100 μg/ml) in a controlled CO2 atmosphere. […] Cell viability was determined by the Trypan blue exclusion method, which was in excess of 95%. […] Subsequently, supernatants were transferred to a 96-well plaque for fluorescence analysis and the FRET substrate (QXLTM 520) was added for MMP-1-2-3-12-13. The plaque was shaked and fluorescence measured a different times with excitation and emission wavelengths set at 490 nm and 520 nm, respectively. […] Means and standard errors were calculated, and an analysis of variance and Dunnett's t-test were performed. […]

[2] = test system: human osteoarthritic synoviocytes; test: Production of endogenous hyaluronic acid by human synoviocytes (ELISA of culture supernatant); format: cell-based
Description: The composition of the invention, the HA extraction and the HA fermentation were separately incubated with synoviocytes for 12 and 24-hour periods. The following concentrations were used, both of the composition of the invention and of the hyaluronic acids: 10 μg/ml, 100 μg/ml and 200 μg/ml.
Synovial tissues were obtained from three osteoarthritic joints.
Synovial tissue was introduced into a sterile vial with DMEM (Dulbecco's Modification of Eagle's Medium) (2%), penicillin (150 U/ml), streptomycin ([…]) and amphotericin B (2 μg/ml), and then placed in a refrigerator (temperature: 0-4° C.) for transferral to the cell culture area. The synovial tissue was diced into fragments approximately sized to 2×2×2 mm^3. The fragments were washed three times in culture medium (RPMI 2% P/S/A). 20 ml of culture medium with 10% trypsin was added, and then incubated in a water bath at 37° C. for 10-15 minutes. Subsequently, the synovium was digested with 25 ml of collagenase solution [2 mg/ml type II collagenase; 5% fetal calf serum (FCS); 2% P/S/A; 1% L-glutamine; and deoxyribonuclease I 0.1 mg/ml or 150 U/l in RPMI]. The vial was introduced into a rotary shaker at 37° C. for approximately 2-4 hours. The cells were strained through a nylon filter with 25 μm diameter pores. A cell count was conducted and the cells were grown to a density of 5,000 to 10,000 cell/cm^2 in culture bottles of 25 or 75 cm^2 surface. The culture medium used was RPM supplemented with 10% FCS, 1% P/S and 1% L-glutamine. The synoviocytes used in the experiments were all from passages 2-3.
Following a 24-hour period culture, the synoviocytes (100,000 cells per well in a 24-well plate with 250 μl of medium) were stimulated using the composition of the invention, the HA extraction and the HA fermentation for 12 and 24-hour periods. Then, the supernatant of the different wells was harvested. The endogenous hyaluronic acid content was measured using an ELISA (Corgenix Inc. USA).
Results are shown as the average of 9 individual experiments performed on the cultures. Results are expressed as averages±S.D. and S.E. The statistical analysis was done using a two-tailed unpaired Student's T-test. A statistical difference is considered significant when p<0.05.

Substance | reduction of metalloprotease activity (in words) [1] | level of endogenous hyaluronic acid in supernatant ([2]; 12-hour period, 100 μg/ml) | level of endogenous hyaluronic acid in supernatant ([2]; 24-hour period, 100 μg/ml) | level of endogenous hyaluronic acid in supernatant ([2]; 24-hour period, 200 μg/ml) | level of endogenous hyaluronic acid in supernatant ([2]; 12-hour period, 200 μg/ml)
dermatan sulphate | reduction of metalloprotease activity, albeit not at a statistically significant level | – | – | – | –
hyaluronic acid [HA extraction] | – | 25,762 ng/ml | 27,634 ng/ml | 91,538 ng/ml | –
hyaluronic acid [hyaluronic acid (HA)] | reduction of metalloprotease activity, albeit not at a statistically significant level | – | – | – | –
sodium hyaluronate [HA fermentation] | – | 9,724 ng/ml | 15,706 ng/ml | 72,594 ng/ml | 62,618 ng/ml
